In patent US12576033B2, “Spray-dried formulation of a pyridazinone TRPC5 inhibitor” (GFB (ABC), LLC, priority 2019, dated 2026):

Columns and labels:
Assay type in all cases: physicochemical
[1] = Two stage gastric transfer non-sink dissolution test (0.1N HCl/FaSSIF)
Protocol: In-vitro drug dissolution performance for each SDI is evaluated by Patheon's two stage ‘gastric transfer’ non-sink dissolution test (Table 8), which simulates pH and bile salt concentrations for both gastric and intestinal exposure in a simple to perform assay. Pre-weighed SDI powder is briefly suspended in media (e.g. by 10 sec vortex mixing with 4.0 mL media) and transferred to a pre-heated (37° C.) volume of 50 mL of 0.1N HCl(aq) (simulated gastric fluid or SGF, pH˜1.0, without pepsin or bile salts), in a USP Type 2 mini-vessel (100 mL total vessel volume) while stirring (paddles) at 100 rpm. After 30 minutes of gastric pH exposure, an equal volume of PBS buffered, 2× concentrated fasted-state simulated intestinal fluid (FaSSIF) is added to the SGF, resulting in a final pH of 6.8 in FaSSIF (100 mM PBS containing 2.24 mg/mL SIF powder (original) (Biorelevant Inc.) in a total volume of 100 mL. Aliquiots (1.0 mL) of dissolution media are taken at selected time-points before and after the simulated gastric transfer, spun-down (13000 rpm) to pellet out undissolved solids, and the supernatant sampled and further diluted in an appropriate diluent to determine API total drug concentration (e.g. free and colloidal/polymer-bound drug in solution) utilizing a suitable HPLC method. Additional centrifugation and filtration was performed using 10K molecular weight cutoff filters to remove polymer bound aggregates and colloids. The resulting filtrate of free drug consists of drug in solution and micelles. The volume of FaSSIF added is adjusted to account for the sampling volume removed prior to gastric transfer (typically 4×1.0 mL). Initial Compound 1 API measurements and SDI dissolution samples were determined utilizing HPLC.
The dissolution performance of the SDI material and crystalline Compound 1 was tested in Patheon's non-sink dissolution test (FIG. 6 and Table 15). The dissolution test is used to measure the supersaturation of drug above the bulk crystalline Compound 1 solubility in biorelevant intestinal media (FaSSIF) after 30 minutes exposure to a low-pH environment. […]

[2] = MDSC thermal analysis (Tg)
Protocol: MDSC was performed using a TA Instruments Discovery DSC2500 differential scanning calorimeter equipped with a TA instruments Refrigerated Cooling System 90. MDSC was used to measure thermodynamic events and characteristics of Compound 1 API and subsequent SDIs. Events observed include the glass transition temperature (Tg), cold crystallization (Tc, defined as a crystallization event at a temperature lower than the melt temperature) and melting temperature (Tm). SDI samples were placed in non-hermetic aluminum pans and heated at a constant rate of 2.0° C./min over a 0-200° C. temperature range. The system was purged by nitrogen flow at 50 mL/min to ensure inert atmosphere through the course of measurement. […] The resulting amorphous API was analyzed by modulated DSC up to 265° C. […]
Thermal properties including melting temperature (Tm), glass transition temperature (Tg) and crystallization temperature (Tc) of Compound 1 crystalline Form H (anhydrous/solvate free) were measured by MDSC. […] The Tg was measured via a melt-quench technique, heating Compound 1 past its melting temperature and rapidly cooled in liquid nitrogen to trap the molten material in an amorphous state. The resulting sample was analyzed by MDSC and a Tg of 130° C. was observed (FIGS. 1A-B/Table 9) with no observed crystallization peaks or clear melting events in the subsequent amorphous ramp up to 275° C. […]

[3] = Visual solubility in common spray drying solvents
Protocol: Organic solubility of Compound 1 was determined visually in common spray drying solvents (Table 10) and Compound 1 lot AC5313-058P1 was utilized. […] When removed from heat API crashes out after 5 minutes. Solution (% w/w) was then prepared at 2.0% Compound 1 and heated to 40° C. where solids dissolved immediately. The 2.0% solution was then removed from heat where API appeared to crash out after ˜2 hours.

[4] = 60:40 DCM:Methanol, clear solution when heated to 40° C.
[5] = 80:20 DCM:Methanol, clear solution when heated to 40° C.
[6] = 90:10 DCM:Methanol, clear solution when heated to 40° C.

## O=c1[nH]ncc(N2CCc3c(ncnc3Oc3ccc(F)cc3C(F)(F)F)C2)c1Cl [Compound 1, 4-chloro-5-(4-(4-fluoro-2-(trifluoromethyl)phenoxy)-5,8-dihydropyrido[3,4-d]pyrimidin-7(6H)-yl)pyridazin-3(2H)-one]
[1]; area under the curve after transfer to FaSSIF from 35 to 210 minutes
  Total Drug AUC35-210 FaSSIF: 600 min * μgA/mL
[1]; drug concentration at 180 minutes after transfer to FaSSIF
  Total Drug C210: 3.5 μgA/mL
[1]; non-sink dissolution, FaSSIF
  Increase in AUC over API AUC: 0.4
[2]; amorphous API by melt-quench, MDSC
  Tg: 130 °C
[2]; indicating moderate physical stability
  Tm/Tg ratio: 1.32
[3]; 50:50 DCM:Methanol
  Compound 1 Visual Solubility: >1.0 wt .%
  Observation (visual solubility): Insoluble
[3]; [4]
  Compound 1 Visual Solubility: 2.0-3.0 wt .%
  Observation (visual solubility): Soluble^1
[3]; [5]
  Compound 1 Visual Solubility: 1.0-1.5 wt .%
  Observation (visual solubility): Soluble^1
[3]; [6]
  Compound 1 Visual Solubility: 1.0-1.5 wt .%
  Observation (visual solubility): Soluble^1
[3]; 95:5 Acetone:Water
  Compound 1 Visual Solubility: >1.0 wt .%
  Observation (visual solubility): Insoluble
[3]; Acetone
  Compound 1 Visual Solubility: >1.0 wt .%
  Observation (visual solubility): Insoluble
[3]; Methanol
  Compound 1 Visual Solubility: >1.0 wt .%
  Observation (visual solubility): Insoluble
[3]; Methlyene Chloride (DCM)
  Compound 1 Visual Solubility: >1.0 wt .%
  Observation (visual solubility): Insoluble
[3]; Methyl Ethyl Ketone (MEK)
  Compound 1 Visual Solubility: >1.0 wt .%
  Observation (visual solubility): Insoluble
[3]; Tetrahydrofuran (THF)
  Compound 1 Visual Solubility: >1.0 wt .%
  Observation (visual solubility): Insoluble
[3]; heated (40° C.) 60:40 DCM:Methanol, % w/w
  maximum active loading in solution: 2.0%
